The values that follow come from patent US20230118497A1, “PYRAZOLE-CONTAINING POLYCYCLIC DERIVATIVE INHIBITOR, PREPARATION METHOD THEREFOR AND APPLICATION THEREOF” (Shanghai Hansoh Biomedical Co., Ltd., priority 2019, published 2023).

The target in one data set is T1, 1321N1-hP2X2/3 receptor (Homo sapiens, UniProt P56373+Q9UBL9).
T1 construct: host or cells: 1321N1
T1 sequence (P56373 1-397): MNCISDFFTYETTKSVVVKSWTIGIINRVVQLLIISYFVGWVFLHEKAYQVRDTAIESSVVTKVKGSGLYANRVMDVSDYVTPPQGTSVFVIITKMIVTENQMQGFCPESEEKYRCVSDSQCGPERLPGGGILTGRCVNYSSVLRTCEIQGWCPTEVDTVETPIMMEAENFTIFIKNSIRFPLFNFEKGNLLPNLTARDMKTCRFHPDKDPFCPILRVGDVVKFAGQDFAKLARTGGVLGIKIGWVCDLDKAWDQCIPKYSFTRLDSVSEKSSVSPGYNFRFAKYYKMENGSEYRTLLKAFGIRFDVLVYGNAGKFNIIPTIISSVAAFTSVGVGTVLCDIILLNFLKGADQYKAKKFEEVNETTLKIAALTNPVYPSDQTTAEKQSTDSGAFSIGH
T1 sequence (Q9UBL9 1-471): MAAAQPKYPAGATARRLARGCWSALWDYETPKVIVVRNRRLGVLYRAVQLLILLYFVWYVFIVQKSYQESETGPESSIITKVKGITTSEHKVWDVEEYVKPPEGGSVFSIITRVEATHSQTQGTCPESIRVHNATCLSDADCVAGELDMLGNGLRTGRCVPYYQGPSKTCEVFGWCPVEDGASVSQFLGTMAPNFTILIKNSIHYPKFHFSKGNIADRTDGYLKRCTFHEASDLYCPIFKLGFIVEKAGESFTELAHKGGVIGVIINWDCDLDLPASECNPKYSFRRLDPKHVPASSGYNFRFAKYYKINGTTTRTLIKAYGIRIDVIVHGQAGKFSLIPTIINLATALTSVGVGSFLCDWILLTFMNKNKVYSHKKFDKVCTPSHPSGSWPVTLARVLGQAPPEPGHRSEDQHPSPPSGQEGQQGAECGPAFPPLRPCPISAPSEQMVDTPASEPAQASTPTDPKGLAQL
The data set is described as follows: Calcium ion mobility (FLIPR) in cells stably expressing 1321N1-hP2X2/3 receptors. It counts as cell-based. The following applies: calcium signal, agonist at EC80. As to the method:
Test Example 2. Determination of the Effect of the Compounds of the Present Invention on Calcium Ion Mobility in Cells Stably Expressing 1321N1-hP2X2/3 Receptors
To determine the inhibitory activity of the compounds on 1321N1-hP2X2/3 receptor.
Stably transfected cell line: 1321N1-hP2X2/3 (supplied by Shanghai ChemPartner Chemical Research Co., Ltd.).
Assay buffer: 1*HBSS+20 mM HEPES;
Cell culture medium: DMEM+10% FBS+75 μg/mL Hygromycin B+150 μg/mL G418;
Plating medium: DMEM+10% DPBS;
0.5*Dye: 10*Dye stock+1.25 Probenecid+1*assay buffer+0.5 U/mL ATP hydrolytic enzyme;
2. The cells were cultured to 70%-90% confluency in the cell culture medium at 37° C., 5% CO2. The medium was discarded, and the cells were added with 2 mL of Versene, and the cells were placed in an incubator at 37° C. for 2 to 5 min. The cells were collected by addition of 10 mL of plating medium and counted. The cells were seeded to the 384-well assay plate by addition of 50 μL solution (a density of 1×10^4 cells/well) to each well, and incubated for 16 to 24 hours (at least overnight).
3. The medium was discarded, and 30 μL of 1× dye was added. The cells were incubated at 37° C. in the dark for 60 min.
4. The compound powder was dissolved in DMSO to obtain a 20 mM stock solution. 180× compound with required concentration was formulated, and diluted in gradient for concentration points.
5. Preparation of compound plate: 500 nL of 180× compound was transferred to the compound plate (source plate for FLIPR) using ECHO. 30 μL of assay buffer was added to each well, and the plate was shaken gently for 20 to 40 minutes.
6. Determination: 15 μL of 3× compound was taken from each well and added to the cell plate. The samples were added by FLIPR instrument, and the calcium signals were detected. After 15 minutes, 22.5 μL of 3× agonist (EC80 concentration) was added to each well and the calcium signals were detected.
The calcium signal values were determined by FLIPR. The ratio of the 340/510 nm wavelength signals to 380/510 nm wavelength signals was used as the calculated results for each sampling time point in the experiment. The calculation of maximum minus minimum was derived from the ratio signal curve.
The percent inhibition rate and ten-point concentration data were fitted to the parametric nonlinear logistic equation by using GraphPad prism to calculate the IC50 values of the compounds.

For another data set, the system named is BALB/c mice. The data set is described as follows: Taste sensitivity assay in BALB/c mice (quinine solution intake). It counts as in vivo. The note with it: 30 mpk; for Solution consumption of single mouse, Quinine solution: 3 mmol/L quinine hydrochloride, 30 min; for Dysgeusia rate: quinine solution vs solvent groups (20% HP-B-CD). On the procedure: Test Example 9. Taste Sensitivity Assay in BALB/c Mice
In this assay, compounds with less toxic and side effects on animal taste were screened by quinine bitter solution experiment.
BALB/c mice, 6 to 8 weeks old, ♂, purchased from Shanghai SIPPR-BK Laboratory Animal Co., Ltd.
BALB/c mice were randomly grouped according to body weight, and were deprived of water 12 to 16 hours before administration with no fasting.
An appropriate amount of quinine monohydrochloride dihydrate was weighed and formulated into an aqueous solution quinine hydrochloride (concentration: 3 mmol/L) with ultrapure water for later use.
An appropriate amount of the test compound was weighed and formulated into the target concentration with the corresponding solvent according to the experimental design for later use.
Administration and fasting: On the day of the experiment, the animals were weighed and fasted, bedding was changed, and the compounds were administered according to the experimental design.
1. The corresponding clean mouse drinking bottle was rinsed 2 to 3 times with ultrapure water and the formulated 3 mmol/L aqueous solution of quinine hydrochloriderespectively. The bottle was filled and weighed, and the weight was recorded as Wi0.
2. According to the experimental design, a certain period after administration, the filled bottle was gently placed in the corresponding mouse cage, and the timing was started. After 30 min, the bottle was gently taken out and weighed, and the weight was recorded as Wi30.
3. Calculation of solution consumption of animals in each group: ΔWW(g)=[…]; calculation of solution consumption of single mouse: ΔpWW(g)=ΔWW/N, N is the number of animals in each group.
4. Dysgeusia rate=(ΔpWW of the group in which the drinking water was the aqueous solution of quinine hydrochlorideand the test compound was administered at the same time −ΔpWW of the group in which the drinking water was aqueous solution of quinine hydrochlorideand the solvent control was administered at the same time)/(ΔpWW of the group in which the drinking water was ultrapure water and the solvent control was administered at the same time −ΔpWW of the group in which the drinking water was aqueous solution of quinine hydrochloride and the solvent control was administered at the same time)×100%. Data processing was performed with software such as Excel.

As usually defined, the IC50 is the concentration needed to halve the response being measured. On to `CCc1cc2n(CC(=O)Nc3ccc(F)cn3)c(=O)c3ccc(C(F)(F)F)nc3n2n1` [Example 34, 2-(2-Ethyl-5-oxo-8-(trifluoromethyl)pyrazolo[1,5-a]pyrido[3,2-e]pyrimidin-4(5H)-yl)-N-(5-fluoropyridin-2-yl)acetamide], for which the IC50 at 1321N1-hP2X2/3 receptor was 25.2 µM.

As for `O=C(Cn1c(=O)c2ccc(C(F)(F)F)nc2n2nc(Br)cc12)Nc1ccc(F)cn1` [Example 61-A, 2-(2-bromo-5-oxo-8-(trifluoromethyl)pyrazolo[1,5-a]pyrido[3,2-e]pyrimidin-4(5H)-yl)-N-(5-fluoropyridin-2-yl)acetamide], in the data set on BALB/c mice, the “Solution consumption of single mouse, Quinine solution” value (“Solution consumption of single mouse” for short) amounted to 0.048 g and the Dysgeusia rate was −3.77%. Also, at 1321N1-hP2X2/3 receptor, the IC50 was 6.36 µM.

With `N#Cc1cc2n(CC(=O)Nc3ccc(F)cn3)c(=O)c3ccc(C(F)(F)F)nc3n2n1` [Example 68, 2-(2-Cyano-5-oxo-8-(trifluoromethyl)pyrazolo[1,5-a]pyrido[3,2-e]pyrimidin-4(5H)-yl)-N-(5-fluoropyridin-2-yl)acetamide], in the data set on BALB/c mice, the “Solution consumption of single mouse” value was found to be 0.056 g and the Dysgeusia rate is −2.26%. Besides, the IC50 on 1321N1-hP2X2/3 receptor was 5.63 µM.

`O=C(Cn1c(=O)c2ccc(C(F)(F)F)nc2n2nccc12)Nc1ccc(F)cn1` [Example 78, N-(5-Fluoropyridin-2-yl)-2-(5-oxo-8-(trifluoromethyl)pyrazolo[1,5-a]pyrido[3,2-e]pyrimidin-4(5H)-yl)acetamide]: in the data set on BALB/c mice, the “Solution consumption of single mouse” value came to 0.016 g and the Dysgeusia rate was −9.81%. For the same compound, the IC50 at 1321N1-hP2X2/3 receptor was 4.52 µM.

Regarding `N#Cc1cnn2c3nc(C(F)(F)F)ccc3c(=O)n(CC(=O)Nc3ccc(F)cn3)c12` [Example 80, 2-(3-Cyano-5-oxo-8-(trifluoromethyl)pyrazolo[1,5-a]pyrido[3,2-e]pyrimidin-4(5H)-yl)-N-(5-fluoropyridin-2-yl)acetamide], the IC50 on 1321N1-hP2X2/3 receptor stood at 3.04 µM.
